Laboratory results published in US9538763B2, “Cleaning, disinfecting and microbicidal compositions” (priority 2009, dated 2017).

Assays:
Type in all cases: cell-based
[1] = test system: Staphylococcus aureus; experiment: modified detergent and germicidal sanitizer test of the A.O.A.C.; details: 50 ppm hypochlorite control
Description: (§1) The microbicidal efficacy of the microbicidal disinfecting compositions of Examples 1-3 (compositions A-C) were evaluated with 50 ppm of hypochlorite as a control against Staphylococcus aureus and Escherichia coli by the modified detergent and germicidal sanitizer test of the A.O.A.C. (Lopes, 1986).

[2] = test system: Escherichia coli; experiment: as above; details: 50 ppm hypochlorite control
Description: as §1

[3] = test system: Salmonella; experiment: treatment of Salmonella-contaminated tomatoes; details: 150 ppm
Description: The microbicidal efficacy of the microbicidal disinfecting composition of Example 1 (composition A) was further tested and proven effective against Salmonella on contaminated tomatoes. When Salmonella-contaminated tomatoes were treated with 0.1% solution of composition A, the viable bacterial population was reduced by 2.31 log10 CFU as compared with 2.11 log10 CFU with 150 ppm of hypochlorite.

In the case of OCl [Hypochlorite, hypochlorite], the “% Kill Staph. aureus” value [1] is reported as over 99.999%, the “% Kill E. coli” value [2] is reported as over 99.999% and the “reduction of viable bacterial population” value [3] is reported as 2.11 log10 CFU.
